Reference: BigSolDB 2.1

Cc1cnc(NC(=O)C2=C(O)c3ccccc3S(=O)(=O)N2C)s1
solubility (mole fraction)
Settings | 288.15 K | 293.15 K | 298.15 K | 303.15 K | 308.15 K
in ethanol | 2.2e-05 | 2.55e-05 | 3.2e-05 | 3.95e-05 | 5.3e-05
in ethylene glycol | 2.53e-05 | 2.59e-05 | 3.02e-05 | 2.91e-05 | 3.06e-05
in propylene glycol | 4.49e-05 | 4.52e-05 | 4.74e-05 | 5.6e-05 | 6.61e-05
in water | 2e-07 | 3e-07 | 4e-07 | 9e-07 | 1.1e-06
